Laboratory results published in patent US10323023B2, “Rho-associated protein kinase inhibitor, pharmaceutical composition comprising the same, as well as preparation method and use thereof” (Beijing Tide Pharmaceutical Co., Ltd., priority 2017, dated 2019).

Each compound was assayed against ROCK2 (Homo sapiens (Human), UniProt O75116) (assay: ROCK2 kinase IC50 by HTRF KinEASE-STK S2 kit). Settings: 2 hours at room temperature, ROCK2 (01-119) from Carna Biosciences.
Type: biochemical
Protocol: The kinase IC50 was determined by a commercialized CISBIO kinase detection kit, HTRF KinEASE-STK S2 kit (62ST2PEC). ROCK2 (01-119) employed in the reaction was purchased from Carna Biosciences.
Before the assay, the following working solutions as needed were formulated with corresponding reagents according to the instruction of the kinase detection kit: 1×kinase buffer, 5×STK-S2 substrate working solution (1.5 μM) and 5×ATP working solution (1.5 μM), 5×ROCK2 kinase working solution, 4×Streptavidin-XL665 working solution, and 4×STK-Ab-Cryptate 2 detection solution. Then the assay was performed according to the following procedure.
A solution of a compound at a concentration of 10000 nM was prepared with the 1×kinase buffer containing 2.5% DMSO. Gradient dilution of the solution of the compound was performed with the kinase buffer containing DMSO, so as to obtain solutions of a test compound at 9 different concentrations. In addition to wells of test compounds, a positive well (containing all the reagents except the compound) and a negative well (containing all the reagents except the test compound and kinase) were set. Except for the control wells (positive and negative wells), a solution of a test compound (4 μL) was added to each of the reaction wells, and a solution of 2.5% DMSO was added to the control wells. Then the substrate (2 μM, i.e., 2 μL 5×STK-S2 substrate working solution) was added to each of the reaction wells. The 5×ROCK2 kinase working solution (2 μL, containing 1.4 ng ROCK2 kinase) was added to each of the reaction wells except for the negative well, the volume of which was made up with the 1×kinase buffer (2 μL). The 5×ATP working solution (2 μL) was added to each of the reaction wells, and the mixtures were incubated at room temperature for 2 hours. After the kinase reaction was complete, the 4×Streptavidin-XL665 working solution was added to each of the reaction wells, the solutions were mixed, followed by immediate addition of the 4×STK-Ab-Cryptate 2 detection solution (5 μL), and the mixtures were incubated at room temperature for 1 hour. The fluorescence signal was read on ENVISION (Perkinelmer) (excitation wavelength: 320 nm, and emission wavelength: 665 nm and 615 nm). The inhibitory rate in each well was calculated based on the fluorescence intensity value: ER (Emission Ratio)=(fluorescence intensity at 665 nm/fluorescence intensity at 615 nm); inhibitory rate=(ERpositive−ERtest compound)/(ERpositive−ERnegative)*100%. Curves were plotted and fitted to obtain the median inhibitory concentration (IC50) of each test compound with the PRISM 5.0 software.

Chain of ROCK2 (O75116 1-553 limits assumed): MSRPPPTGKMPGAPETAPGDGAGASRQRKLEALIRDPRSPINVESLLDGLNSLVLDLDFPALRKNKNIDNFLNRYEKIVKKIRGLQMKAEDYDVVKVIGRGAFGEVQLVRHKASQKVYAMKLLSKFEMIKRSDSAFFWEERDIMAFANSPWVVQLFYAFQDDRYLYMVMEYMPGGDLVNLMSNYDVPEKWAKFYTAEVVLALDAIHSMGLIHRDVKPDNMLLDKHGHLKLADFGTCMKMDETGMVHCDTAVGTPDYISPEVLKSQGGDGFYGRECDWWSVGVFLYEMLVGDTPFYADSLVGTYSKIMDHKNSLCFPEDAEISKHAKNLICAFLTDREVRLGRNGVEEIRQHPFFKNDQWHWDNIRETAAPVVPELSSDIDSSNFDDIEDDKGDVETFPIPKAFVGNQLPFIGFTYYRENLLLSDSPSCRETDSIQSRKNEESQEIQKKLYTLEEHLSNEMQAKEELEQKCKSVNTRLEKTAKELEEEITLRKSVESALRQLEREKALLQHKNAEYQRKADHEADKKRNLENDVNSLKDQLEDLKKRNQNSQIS

IC50 [nM]	Structure (SMILES)
135	O=C(Nc1ccnnc1)c1ccc2ccc(-c3nccc(Nc4ccc5[nH]ncc5c4)n3)cc2n1 [TDI01236, 7-(4-((1H-indazol-5-yl)amino)pyrimidin-2-yl)-N-(pyridazin-4-yl)quinoline-2-carboxamide]
171	O=C(Nc1ccnnc1)N1Cc2ccc(-c3nccc(Nc4ccc5[nH]ncc5c4)n3)cc2C1 [TDI01237, 5-(4-((1H-indazol-5-yl)amino)pyrimidin-2-yl)-N-(pyridazin-4-yl)isoindoline-2-carboxamide]
438	O=C(Nc1ccnnc1)c1cc2ccc(-c3nc(Nc4ccc5[nH]ncc5c4)cc4nccn34)cc2[nH]1 [TDI01164, 6-(7-((1H-indazol-5-yl)amino)imidazo[1,2-c]pyrimidin-5-yl)-N-(pyridazin-4-yl)-1H-indole-2-carboxamide]
37	O=C(Nc1ccnnc1Cl)c1cc2ccc(-c3nccc(Nc4ccc5[nH]ncc5c4)n3)cc2[nH]1 [TDI01180, 6-(4-((1H-indazol-5-yl)amino)pyrimidin-2-yl)-N-(3-chloro-pyridazin-4-yl)-1H-indole-2-carboxamide]
48	Cn1c(C(=O)Nc2ccnnc2)cc2ccc(-c3nccc(Nc4ccc5[nH]ncc5c4)n3)cc21 [TDI01201, 6-(4-((1H-indazol-5-yl)amino)pyrimidin-2-yl)-1-methyl-N-(pyridazin-4-yl)-1H-indole-2-carboxamide]
236	O=C(Nc1ccnnc1)c1cc2ccc(-c3nccc(Nc4ccc5[nH]ncc5c4)n3)cc2s1 [TDI01116, 6-(4-((1H-indazol-5-yl)amino)pyrimidin-2-yl)-N-(pyridazin-4-yl)benzo[b]thiophene-2-carboxamide]
225	O=C(Nc1ccnnc1)c1c[nH]c2ccc(-c3nccc(Nc4ccc5[nH]ncc5c4)n3)cc12 [TDI01191, 5-(4-((1H-indazol-5-yl)amino)pyrimidin-2-yl)-N-(pyridazin-4-yl)-1H-indole-3-carboxamide]
295	Cc1nc(-c2ccc3cc(C(=O)Nc4ccnnc4)[nH]c3c2)nc(Nc2ccc3[nH]ncc3c2)c1C [TDI01232, 6-(4-((1H-indazol-5-yl)amino)-5,6-dimethylpyrimidin-2-yl)-N-(pyridazin-4-yl)-1H-indole-2-carboxamide]
223	O=C(Nc1ccnnc1)c1cc2ccc(-c3ncnc(Nc4ccc5[nH]ncc5c4)n3)cc2[nH]1 [TDI01167, 6-(4-((1H-indazol-5-yl)amino)-1,3,5-triazin-2-yl)-N-(pyridazin-4-yl)-1H-indole-2-carboxamide]
113	Cc1c(Nc2ccnc(-c3ccc4cc(C(=O)Nc5ccnnc5)[nH]c4c3)n2)ccc2[nH]ncc12 [TDI01276, 6-(4-((4-methyl-1H-indazol-5-yl)amino)pyrimidin-2-yl)-N-(pyridazin-4-yl)-1H-indole-2-carboxamide]
123	O=C(Nc1ccnnc1)c1cc2cc(-c3nccc(Nc4ccc5[nH]ncc5c4)n3)ccc2[nH]1 [TDI01188, 5-(4-((1H-indazol-5-yl)amino)pyrimidin-2-yl)-N-(pyridazin-4-yl)-1H-indole-2-carboxamide]
168	O=C(NCc1ccnnc1)c1cc2ccc(-c3nccc(Nc4ccc5[nH]ncc5c4)n3)cc2[nH]1 [TDI01178, 6-(4-((1H-indazol-5-yl)amino)pyrimidin-2-yl)-N-(pyridazin-4-ylmethyl)-1H-indole-2-carboxamide]
88	O=C(Nc1ccnnc1)c1cc2ccc(-c3nccc(Nc4ccc5[nH]ncc5c4)n3)cc2[nH]1 [TDI01152, 6-(4-((1H-indazol-5-yl)amino)pyrimidin-2-yl)-N-(pyridazin-4-yl)-1H-indole-2-carboxamide]
197	O=C(Nc1ccnnc1)c1cc2ccc(-c3nc(Nc4ccc5[nH]ncc5c4)c4sccc4n3)cc2[nH]1 [TDI01175, 6-(4-((1H-indazol-5-yl)amino)thieno[3,2-d]pyrimidin-2-yl)-N-(pyridazin-4-yl)-1H-indole-2-carboxamide]
101	Cc1cc(Nc2ccc3[nH]ncc3c2)nc(-c2ccc3cc(C(=O)Nc4ccnnc4)[nH]c3c2)n1 [TDI01251, 6-(4-((1H-indazol-5-yl)amino)-6-methyl-pyrimidin-2-yl)-N-(pyridazin-4-yl)-1H-indole-2-carboxamide]
255	O=C(Nc1ccnnc1)c1cc2ccc(-c3ncc(F)c(Nc4ccc5[nH]ncc5c4)n3)cc2[nH]1 [TDI01213, 6-(4-((1H-indazol-5-yl)amino)-5-fluoro-pyrimidin-2-yl)-N-(pyridazin-4-yl)-1H-indole-2-carboxamide]
92	O=C(Nc1cnncc1Cl)c1cc2ccc(-c3nccc(Nc4ccc5[nH]ncc5c4)n3)cc2[nH]1 [TDI01181, 6-(4-((1H-indazol-5-yl)amino)pyrimidin-2-yl)-N-(5-chloro-pyridazin-4-yl)-1H-indole-2-carboxamide]
208	Cc1cnc(-c2ccc3cc(C(=O)Nc4ccnnc4)[nH]c3c2)nc1Nc1ccc2[nH]ncc2c1 [TDI01250, 6-(4-((1H-indazol-5-yl)amino)-5-methyl-pyrimidin-2-yl)-N-(pyridazin-4-yl)-1H-indole-2-carboxamide]
356	CN(C(=O)c1cc2ccc(-c3nccc(Nc4ccc5[nH]ncc5c4)n3)cc2[nH]1)c1ccnnc1 [TDI01347, 6-(4-((1H-indazol-5-yl)amino)pyrimidin-2-yl)-N-methyl-N-(pyridazin-4-yl)-1H-indole-2-carboxamide]
